As a reminder, the EC50 is the concentration at which the effect is half-maximal.

Molecules are shown by their SMILES. Where only a bound is given, the exact number is not on record here.

T1 sequence (P48775 whole entry): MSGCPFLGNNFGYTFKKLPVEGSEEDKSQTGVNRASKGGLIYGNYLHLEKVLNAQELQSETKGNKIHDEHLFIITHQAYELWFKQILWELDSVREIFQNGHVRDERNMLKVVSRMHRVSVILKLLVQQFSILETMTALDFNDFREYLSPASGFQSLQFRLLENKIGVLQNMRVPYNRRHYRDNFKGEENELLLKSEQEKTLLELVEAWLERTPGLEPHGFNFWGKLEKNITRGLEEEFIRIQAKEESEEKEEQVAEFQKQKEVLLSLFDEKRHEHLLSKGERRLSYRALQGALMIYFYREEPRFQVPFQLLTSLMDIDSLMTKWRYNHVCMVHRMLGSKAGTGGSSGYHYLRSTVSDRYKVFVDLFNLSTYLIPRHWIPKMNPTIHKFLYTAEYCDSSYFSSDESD

This assay concerns the target T1, TDO2 (Homo sapiens, UniProt P48775).
T1 construct: decreased levels of NFK in SW48 cells (high TDO expressing cells)
As to the kind of experiment: TDO2 cell assay (NFK GreenScreen, SW48 cells). Format: cell-based. The following applies: SW48 cells (high TDO expressing), 200 uM tryptophan, 24 hours; Table 3; read-out: TDO2 Cell Fluor EC50.
With `CS(=O)(=O)N1CCC(C2c3ccc(F)cc3-c3cncn32)C(O)C1` (single isomer, unassigned) [Example 119b], the EC50 came out at 8400 nM.
For `OC1(C2c3ccccc3-c3cncn32)CCOC1` (single isomer, unassigned) [Example 129b], the EC50 stood at 17000 nM.
As for `Cn1ncc2c1CCC(C1c3ccccc3-c3cncn31)C2O` (single isomer, unassigned) [Example 93c], the figure is 1400 nM.
Take `N[C@@H]1COC[C@@H]1[C@H]1c2ccccc2-c2cncn21` (single isomer, unassigned) [Example 32c]: the EC50 worked out at 5200 nM.
In the case of `CN(C)C(=O)c1ccc2c(c1)CCC(C1c3ccccc3-c3cncn31)C2O` (single isomer, unassigned) [Example 98g], the half-maximal effective concentration (EC50) worked out at 860 nM.
With `CCS(=O)(=O)N1CC(O)C(C2c3ccccc3-c3cncn32)C1` (single isomer, unassigned) [Example 40c], the EC50 is greater than 25000 nM.
Under `CC(C)(C)OC(=O)N1CCCC(O)(C2c3ccccc3-c3cncn32)C1` (single isomer, unassigned) [Example 127c] stands 760 nM; under `CC1(O)CCC1C1c2ccccc2-c2cncn21` (single isomer, unassigned) [Example 35d], 350 nM; under `N#Cc1ccc2c(c1)C(O)C(C1c3ccccc3-c3cncn31)CC2` (single isomer, unassigned) [Example 113f], 170 nM.
As for `CC1(C)OCC(C2c3ccccc3-c3cncn32)C1O` (single isomer, unassigned) [Example 85h], the figure is 660 nM; as for `O[C@H]1CCC[C@H]1[C@@H]1c2ccccc2-c2cncn21` [Example 02d, (1S,2S)-2-((R)-5H-imidazo[5,1-a]isoindol-5-yl)cyclopentan-1-ol], 14000 nM.
As to `NC(=O)c1nc2c(s1)CCC(C1c3ccccc3-c3cncn31)C2O` (single isomer, unassigned) [Example 149h], the EC50 is 24000 nM.
As for `CS(=O)(=O)N1CCC2(CC1)CC(C1c3ccccc3-c3cncn31)C2O` (single isomer, unassigned) [Example 179f], the figure is 120 nM.
Under `NC(=O)c1ccc2c(c1)CC[C@H](C1c3ccccc3-c3cncn31)[C@H]2O` (stereo in doubt) [Example 60c, (5R,6R)-5-hydroxy-6-((S)-5H-imidazo[5,1-a]isoindol-5-yl)-5,6,7,8-tetrahydronaphthalene-2-carboxamide] stands 2400 nM.
As for `CC1(C)CCCC(C)(C2c3ccccc3-c3cncn32)C1O` (single isomer, unassigned) [Example 90c], the figure is 57 nM.
As to `OC1(C2c3ccccc3-c3cncn32)CCCC1` (racemic) [Example 55, 1-(5H-imidazo[5,1-a]isoindol-5-yl)cyclopentan-1-ol], the EC50 was determined as 1600 nM.
For `Cc1cnn2c1C(O)C(C1c3ccccc3-c3cncn31)CC2` (single isomer, unassigned) [Example 159b], the EC50 is 14000 nM.
On to `CC1(C)CCC(C2c3ccccc3-c3cncn32)C1O` (single isomer, unassigned) [Example 23a], for which the EC50 was greater than 25000 nM.
Under `O=S(=O)(C1CC1)N1CCC(C2c3ccccc3-c3cncn32)C(O)C1` (mixture of isomers) [Example 77b, (3S,4SR)-1-(cyclopropylsulfonyl)-4-((S)-5H-imidazo[5,1-a]isoindol-5-yl)piperidin-3-ol] stands 86 nM.
For `CCS(=O)(=O)N1CCC2(CC1)CC(C1c3ccccc3-c3cncn31)C2O` (single isomer, unassigned) [Example 114d], the EC50 is 220 nM.
Consider `O=S1(=O)CC(C2c3ccccc3-c3cncn32)C(O)c2ccccc21` (racemic) [Example 96a, 4-hydroxy-3-(5H-imidazo[5,1-a]isoindol-5-yl)thiochromane 1,1-dioxide], for which the EC50 is 890 nM.
Under `OC1c2cc(CF)nn2CCC1C1c2ccccc2-c2cncn21` (single isomer, unassigned) [Example 95b] stands 240 nM; under `Nc1ncc2c(n1)CCC(C1c3ccccc3-c3cncn31)C2O` (single isomer, unassigned) [Example 111e], 5700 nM; under `CC1(C)COCC(C2c3ccccc3-c3cncn32)C1O` (single isomer, unassigned) [Example 66d], 2000 nM.
For `CCC(O)C1c2ccccc2-c2cncn21` (single isomer, unassigned) [Example 137c], the EC50 was 200 nM.
As for `CS(=O)(=O)N1CCC(O)(C2c3ccccc3-c3cncn32)C1` (single isomer, unassigned) [Example 116d], the figure is 730 nM; as for `Nc1ccc2c(n1)CCC(C1c3ccccc3-c3cncn31)C2O` (single isomer, unassigned) [Example 121h], 4800 nM.
As for `OC1C(C2c3ccccc3-c3cncn32)CCC12CCOCC2` (single isomer, unassigned) [Example 68d], the figure is greater than 25000 nM; as for `Cc1cc2n(n1)CCC(C1c3ccccc3-c3cncn31)C2O` (single isomer, unassigned) [Example 166a], greater than 25000 nM; as for `OC1COCCC1C1c2ccccc2-c2cncn21` (single isomer, unassigned) [Example 06g], 560 nM.
Under `CC1(C)COCC(C2c3ccccc3-c3cncn32)C1O` (single isomer, unassigned) [Example 66g] stands 71 nM.
For `CS(=O)(=O)c1ccc2c(c1)OCC(C1c3ccccc3-c3cncn31)C2O` (single isomer, unassigned) [Example 91e], the concentration giving a half-maximal response (EC50) was determined as 6100 nM.
Under `OC1CCOCC1C1c2c(F)cccc2-c2cncn21` (single isomer, unassigned) [Example 73b] stands 2200 nM; under `OC1c2[nH]ncc2CCC1C1c2ccccc2-c2cncn21` (single isomer, unassigned) [Example 157a], 370 nM.
Under `CC(C)(C)OC(=O)N1CC2(CC(C3c4ccccc4-c4cncn43)C2O)C1` (single isomer, unassigned) [Example 41g, tert-butyl 7-hydroxy-6-(5H-imidazo[1,5-b]isoindol-5-yl)-2-azaspiro[3.3]heptane-2-carboxylate] stands greater than 25000 nM.
As for `OC1c2ccccc2CC1C1c2ccccc2-c2cncn21` (single isomer, unassigned) [Example 19a], the figure is 7400 nM; as for `OC(C1CC1)C1c2ccccc2-c2cncn21` (single isomer, unassigned) [Example 52b], 23700 nM; as for `CS(=O)(=O)N1CCC(O)(C2c3ccccc3-c3cncn32)C1` (single isomer, unassigned) [Example 116c], greater than 25000 nM.
As to `Nc1ncc2c(n1)CCC(C1c3ccccc3-c3cncn31)C2O` (single isomer, unassigned) [Example 111g], the EC50 is greater than 25000 nM.
As to `OC1(C2c3ccccc3-c3cncn32)CCCOC1` (single isomer, unassigned) [Example 144c], the EC50 amounted to 2100 nM.
Turning to `O[C@@H]1c2c(Cl)cnn2CC[C@@H]1[C@H]1c2ccccc2-c2cncn21` (single isomer, unassigned) [Example 160c], the EC50 came to 23000 nM.
Regarding `CS(=O)(=O)N1CCC(C2c3ccc(F)cc3-c3cncn32)C(O)C1` (single isomer, unassigned) [Example 119a], the EC50 is greater than 25000 nM.
Under `OC1C(C2c3ccc(F)cc3-c3cncn32)CC12CCOCC2` (single isomer, unassigned) [Example 109b] stands 3900 nM; under `O=S(=O)(C1CC1)N1CC[C@@H](O)[C@H]([C@H]2c3ccccc3-c3cncn32)C1` (single isomer, unassigned) [Example 70b], 1100 nM; under `O[C@H]1CCC(F)(F)C[C@H]1[C@H]1c2ccccc2-c2cncn21` [Example 18a, (1S,2S)-4,4-difluoro-2-((S)-5H-imidazo[5,1-a]isoindol-5-yl)cyclohexan-1-ol], 65 nM.
Under `OC1c2cnncc2CCC1C1c2ccccc2-c2cncn21` (single isomer, unassigned) [Example 112f] stands 3800 nM; under `OC(C1c2ccccc2-c2cncn21)C1(F)CC1` (single isomer, unassigned) [Example 154a], 130 nM; under `NS(=O)(=O)N1CC[C@@H]([C@@H]2c3ccccc3-c3cncn32)[C@H](O)C1` (single isomer, unassigned) [Example 39c], greater than 25000 nM.
Under `OC1(C2c3ccccc3-c3cncn32)CCCOC1` (single isomer, unassigned) [Example 144a] stands 1000 nM; under `O[C@@H]1c2ncccc2CC[C@H]1[C@H]1c2ccccc2-c2cncn21` [Example 63a, (7S,8S)-7-((S)-5H-imidazo[5,1-a]isoindol-5-yl)-5,6,7,8-tetrahydroquinolin-8-ol], 61 nM.
As for `CC(C)(C(N)=O)C(O)C1c2ccccc2-c2cncn21` (single isomer, unassigned) [Example 155d], the EC50 was greater than 25000 nM.
As for `CC1(C)CCCCC1(O)C1c2ccccc2-c2cncn21` (single isomer, unassigned) [Example 164a], the figure is 40 nM; as for `O[C@H]1c2ccncc2CC[C@H]1[C@@H]1c2ccccc2-c2cncn21` (single isomer, unassigned) [Example 08c], 5200 nM.
Under `OC1C(C2c3ccccc3-c3cncn32)CC12CCOCC2` (single isomer, unassigned) [Example 57f] stands 730 nM.
Under `CC(=O)N1CCC(O)C(C2c3ccccc3-c3cncn32)C1` (single isomer, unassigned) [Example 12b] stands greater than 25000 nM.
For the molecule `OC1c2[nH]ncc2CCC1C1c2ccccc2-c2cncn21` (single isomer, unassigned) [Example 157h], the EC50 stood at 760 nM.
As for `Cc1ncc2c(n1)CCC(C1c3ccccc3-c3cncn31)C2O` (single isomer, unassigned) [Example 124b], the figure is 290 nM.
As for `O=S1(=O)CC(O)C(C2c3ccccc3-c3cncn32)C1` (single isomer, unassigned) [Example 38c], the figure is 22000 nM.

These data come from patent US12583858B2 (Genentech, Inc., priority 2015, dated 2026).
